These results are taken from patent US20240226001A1, “Contact Lenses And Other Eye-Contacting Matrices Carrying Mitochondrially-Targeted Antioxidants” (Mitotech S.A., priority 2015, published 2024).

Values joined by “and” are separate entries in the source; they are usually repeats but may differ in a detail not shown here. Identical values can stand only once. Like-named read-outs stand apart in the source and are kept apart here.

Data set [1] can be described thus: Adsorption of SkQ1 from saline on soft disposable contact lens, retention in saline, extraction with 50% acetonitrile (Example 2). In kind it is physicochemical. As for the experimental part: Lens pre-wash: soft disposable contact lenses were thoroughly rinsed with saline solution (0.9% NaCl) and incubated in this solution overnight. Preparation of 2.5 μM SkQ1 solution: 4 mL of saline solution was placed in dark glass vials. 40 μL of 500 μM SkQ1 solution in 50% ethanol was added into each vial yielding 2.5 μM SkQ1 solution. Solution in the vial was thoroughly mixed and then incubated overnight to yield A1 series solution. Then aliquots of A1 series were collected from these vials.
During the experiment a pre-washed contact lens was placed into a glass vial with 2.5 uM SkQ1 solution and incubated at +4° C.-+8 °C for 4 days. Then the contact lenses were removed from the 2.5 μM SkQ1 solution, rinsed with saline solution and placed into fresh saline solution and incubated overnight at +4° C.-+8° C. to yield A2 series solution. Aliquots of the A2 series solution were collected from the vials where lenses were incubated in 2.5 μM SkQ1 solution.
After the above described overnight lens incubation in saline solution, lenses were placed in vials containing 500 μL of 50% acetonitrile and mixed during 1 hour at +25° C. Then aliquots of this acetonitrile solution was collected (A3 series).
The content of SkQ1 in the collected aliquots was analyzed using LCMS/MS.

Data set [2] is described as follows: SkQ1 content of control lenses (intact lenses kept in saline solution) (Example 3). Particulars: for SkQ1 conc. in control lenses: 50% acetonitrile extract. In kind it is physicochemical. As for the experimental part: (§1) The experiment was performed as follows: contact lenses were supplemented with SkQ1 as described in Example 2, then some lenses were placed on rabbit eyes and some lenses left aside in saline solution. At certain time points (see below in the table 3) contact lenses were removed from rabbits' eyes (experimental lenses) or saline solution (control lenses) and such rabbits were euthanized and their cornea were taken for SkQ1 content analysis. Then SkQ1 was extracted from the collected lenses and cornea samples using 50% acetonitrile solution and the SkQ1 amount in the extracts was determined using LCMS/MS.

A further data set concerns rabbit eyes. Nature of the data set: SkQ1 content of experimental lenses taken from rabbits eyes (Example 3). It is filed as in vivo. Particulars: for SkQ1 conc. in experimental lenses: 50% acetonitrile extract; for SkQ1 conc. in experimental lenses / SkQ1 amount in experimental lenses: single samples; for Average SkQ1 amount in experimental lenses: average of 2 samples. As for the experimental part: as §1

Data set [3] can be described thus: SkQ1 concentration in rabbit cornea after SkQ1-supplemented contact lens (Example 3). The settings on record: rabbit; for concentration at 30 min / concentration at 1 h / concentration at 2 h: topical; for concentration at 30 min: 30 min after lens placement; for concentration at 1 h: 1 hour after lens placement; for concentration at 2 h: 2 hours after lens placement. It is filed as in vivo. As for the experimental part:
as §1

For data set [4], the system named is rabbit cornea. The description is as above. It is filed as in vivo. Particulars: for SkQ1 nM in cornea / SkQ1 ng per g of cornea / SkQ1 concentration in the cornea (extract): single samples. As for the experimental part: as §1
Data set [5] relates to rabbit cornea. The data set can be described thus: SkQ1 concentration in rabbit cornea after instillation of eye drops (control experiment). In kind it is in vivo. Particulars: eye drops containing 1.55 μg/mL of SkQ1, FIG. 2B. As for the experimental part: Thus SkQ1 was efficiently transferred from the experimental lens into the eye. In the control experiment, SkQ1 was administered into the rabbit eye by instillation of eye drops containing 1.55 μg/mL of SkQ1. At certain time points, samples of rabbit cornea were taken and analyzed for SkQ1 content using LCMS/MS. […] Thus, the mode of accumulation of SkQ1 in the cornea is different when SkQ1 is administered via contact lenses (compare graphs on FIG. 2A and FIG. 2B).

Data set [6] is described as follows: Adsorption of MTCs on a matrix from PBS versus 50% ethanol, HPLC (Example 4). It is filed as physicochemical. Particulars: 250 nM solution in dark glass vials; adsorption in 50% ethanol negligible. As for the experimental part:
It must be noted that SkQ3 differs from SkQ1 by the antioxidant moiety (A moiety in the formula I—see above), while SkB1 differs from SkQ1 by both the linker (L moiety) and targeting moiety (B moiety). So in this experiment, variations in all 3 parts of MTC molecule were successfully used.
The experiment was conducted as follows: 990 μl of phosphate buffered saline (PBS) or 50% water-ethanol solution (SkQ adsorption in 50% ethanol is negligible) was placed in dark glass chromatography vials (Waters, p/n 186000847c). 10 ul of 25 μM SkQ solution in ethanol was then added to each vial, yielding a 250 nM solution. The vials were vigorously mixed and the SkQ concentration in each vial (100 μl samples) was analyzed by HPLC using a Luna C 18 (2), Phenomenex, 250 MM '4.6 mm column with a sorbent particle size of 5 μm. The liquid phase used was acetonitrile:water (56:44), and the flow speed was 1 ml/min. at 25° C. UV detection was performed at A260.

[7] abbreviates: A1 series: 2.5 μM SkQ1 saline solution before lens.
Where [8] appears, read: A2 series: saline solution after lens incubation.
The mark [9] stands for this setting: A3 series: 50% acetonitrile extract of lens, 1 hour at +25° C.
The mark [10] stands for this setting: cornea (50% acetonitrile extract), single samples, read-out: SkQ1 concentration in the cornea (extract).
[11] abbreviates: cornea, average of 2 samples, read-out: SkQ1 Aver. nM in cornea.
Where [12] appears, read: cornea, single samples, read-out: SkQ1 nM in cornea.
Setting [13] is: cornea, single samples, read-out: SkQ1 ng per g of cornea.

As for `CC1=C(C)C(=O)C(CCCCCCCCCC[P+](c2ccccc2)(c2ccccc2)c2ccccc2)=CC1=O` [SkQ1], the “Calculated total SkQ1 amount in the vial, M ± SE (n = 9)” value was 3.69 µg and 3.69 ± 0.11 µg in data set [1] (setting [7]); 0.19 µg and 0.19 ± 0.07 µg in data set [1] (setting [8]). In addition, the entries for the “SkQ1 concentration found, M ± SE (n = 9)” value in data set [1] (setting [7]), in data set [1] (setting [8]) and in data set [1] (setting [9]) were 0.97 ± 0.03 µg/mL, 0.1 ± 0.04 µg/mL and 9.9 ± 0.33 µg/mL, respectively. Further, the “Calculated total SkQ1 amount in the vial (=total SkQ1 amount extracted from the lens), M ± SE (n = 9)” value in data set [1] (setting [9]) was 2.5 µg and 2.5 ± 0.08 µg. Also, the “SkQ1 amount in control lenses” value is 4.611 nmoles/sample in data set [2] (30 min in saline), 4.966 nmoles/sample in data set [2] (1 hour in saline), 5.107 nmoles/sample in data set [2] (2 hours in saline) and 4.377 nmoles/sample in data set [2] (6 hours in saline). The “SkQ1 conc. in control lenses” value in data set [2] (30 min in saline) stood at 5.690 µg/mL; in data set [2] (1 hour in saline), 6.129 µg/mL; in data set [2] (2 hours in saline) it was 6.302 µg/mL; in data set [2] (6 hours in saline), 5.052 µg/mL. The “SkQ1 concentration on intact control lenses left in saline over time” value in data set [2] (30 min to 6 hours, FIG. 1) is recorded as “stayed stable”. The “SkQ1 conc. in experimental lenses” value with rabbit eyes (30 min on rabbit eye) is 2.868 µg/mL and 3.006 µg/mL; with rabbit eyes (1 hour on rabbit eye) it was 3.339 µg/mL and 3.200 µg/mL; in the data set with rabbit eyes (2 hours on rabbit eye) it was 2.77 µg/mL and 2.854 µg/mL; in the data set on rabbit eyes (6 hours on rabbit eye), 1.448 µg/mL and 1.229 µg/mL. Also, the “Average SkQ1 amount in experimental lenses” value in the data set with rabbit eyes (30 min on rabbit eye) is recorded as 2.38 nmoles/sample; in the data set on rabbit eyes (1 hour on rabbit eye) it was 2.65 nmoles/sample; with rabbit eyes (2 hours on rabbit eye), 2.279 nmoles/sample; with rabbit eyes (6 hours on rabbit eye), 1.114 nmoles/sample. The “SkQ1 amount in experimental lenses” value in the data set with rabbit eyes (30 min on rabbit eye) is 2.324 nmoles/sample and 2.436 nmoles/sample; in the data set on rabbit eyes (1 hour on rabbit eye) it was 2.706 nmoles/sample and 2.593 nmoles/sample; with rabbit eyes (2 hours on rabbit eye), 2.244 nmoles/sample and 2.313 nmoles/sample; in the data set on rabbit eyes (6 hours on rabbit eye) it was 1.174 nmoles/sample and 1.053 nmoles/sample. Also, the “Amount of SkQ1 in the contact lens placed on the eye over time” value in the data set with rabbit eyes (30 min to 6 hours, FIG. 1) is reported as “decreased with time”. The concentration at 30 min was found to be 0.64 ng/mL in data set [3] (setting [10]), 5.59 nM in data set [3] (setting [11]), 6.22 nM in data set [3] (setting [12]) and 3.84 ng/g in data set [3] (setting [13]). In addition, the concentration at 1 h in data set [3] (setting [10]) stood at 1.56 ng/mL; in data set [3] (setting [11]) it was 14.7 nM; in data set [3] (setting [12]), 15.2 nM; in data set [3] (setting [13]), 9.36 ng/g. Also, the concentration at 2 h worked out at 1.46 ng/mL in data set [3] (setting [10]), 13.8 nM in data set [3] (setting [11]), 14.2 nM in data set [3] (setting [12]) and 8.76 ng/g in data set [3] (setting [13]). Further, in data set [3] (cornea, other: SkQ1-supplemented contact lens placed on the eye, 6 hours after lens placement, average of 2 samples, read-out: SkQ1 Aver. nM in cornea), the concentration at 6 h amounted to 17.8 nM. Also, the “SkQ1 nM in cornea” value in the data set on rabbit cornea [4] (30 min after lens placement) is 4.96 nM; with rabbit cornea [4] (1 hour after lens placement), 14.30 nM; in the data set on rabbit cornea [4] (2 hours after lens placement) it was 13.32 nM. The “SkQ1 ng per g of cornea” value in the data set with rabbit cornea [4] (30 min after lens placement) is 3.06 ng per g of cornea; in the data set with rabbit cornea [4] (1 hour after lens placement), 8.82 ng per g of cornea; in the data set on rabbit cornea [4] (2 hours after lens placement) it was 8.22 ng per g of cornea. In addition, the “SkQ1 concentration in the cornea (extract)” value was 0.51 ng/mL with rabbit cornea [4] (30 min after lens placement), 1.47 ng/mL in the data set on rabbit cornea [4] (1 hour after lens placement) and 1.37 ng/mL in the data set on rabbit cornea [4] (2 hours after lens placement). Besides, the “Concentration of SkQ1 in the rabbits' eye cornea over time” value in the data set on rabbit cornea [4] (administered via contact lens, FIG. 2A) is reported as “gradually increased”. For the same molecule, the “Time of maximum SkQ1 concentration in cornea” value with rabbit cornea [5] is 30 min. Besides, the “Concentration in PBS as % of the concentration in 50% ethanol” value (“Concentration in PBS as %” below) in data set [6] stood at 51.7%.

Regarding `CC1=C(C)C(=O)C(CCCCCCCCCC[P+](c2ccccc2)(c2ccccc2)c2ccccc2)=C(C)C1=O` [SkQ3], the “Concentration in PBS as %” value in data set [6] was 29.6%.

For the molecule `COc1ccc2c(CC(=O)OCCCCCCCC3=CC(=O)C(C)=C(C)C3=O)c3[n+](cc2c1OC)CCc1cc2c(cc1-3)OCO2` [SkQB1], the “Concentration in PBS as %” value in data set [6] came out at 63.8%.
